Series [1] is described as follows: Toxicological investigation: acute toxicity LD50 in mice, intravenous route. As to conditions: mouse, in vivo, per kg body weight.
Series [2] has as its system carrageenin-induced edema. Nature of the series: Anti-inflammatory action: localised carrageenin-induced edema method. In kind it is in vivo. As to conditions: rats, 100 mg/kg orally 1 h before, with, 1 h and 2.5 hrs after carrageenin. As for the experimental part:
(a) Localised carrageenin-induced edema method: A 1% carrageenin solution (0.1 ml) is injected in the metatarsal flexor muscles of the right hind limb of rats at time 0. The animals of the treated group are additionally administered orally 100 mg/kg of the test derivative, respectively one hour prior to and then simultaneously with the injection of the phlogogenic agent, and then 1 hour and 2.5 hrs thereafter. The percent anti-inflammatory activity with reference to the reference group, as a function of time, is determined by measurements effected with a Roch micrometer at times 0, 1 hour, 2 hours, 3 hours and 5 hours after carrageenin administration. The results obtained with derivatives nos.

Series [3] has as its system ovalbumin-induced systemic edema. Nature of the series: Anti-inflammatory action: ovalbumin-induced systemic edema method. In kind it is in vivo. The conditions noted are these: rats, 100 mg orally 1 hr prior to and with ovalbumin, vs control group. On the procedure: (b) Ovalbumin-induced systemic edema method Rats are administered a simultaneous intraperitoneal injection of 1 ml ovalbumin and 0.5 ml of a 1°/.Salinity. aqueous Evans Blue solution. The animals of the treated group are additionally administered orally 100 mg of the test derivative, 1 hr prior to and simultaneously with ovalbumin administration. The intensity of the phenomenon thus induced is scored according to a scale from 1 to 5, according to the progress of the inflammatory syndrome. Thus are determined the mean intensity of the edema and the percent decrease of the edema reaction with respect to the control group.

SMILES strings stand for the structures.

As for `Cl.Clc1ccccc1C=CCN1CCc2sccc2C1` [Derivative no. 6, 5-(3-o-chlorophenyl-2-propenyl)-4,5,6,7-tetrahydro-thieno[3,2-c]pyridine hydrochloride], the LD50 at 24 h in series [1] amounted to 60 mg/kg.
Still for that read-out and setting: the value for `O=C(O)c1ccccc1CN1CCc2sccc2C1` [Derivative no. 2, 5-o-Carboxybenzyl-4,5,6,7-tetrahydro-thieno[3,2-c]pyridine] was 300 mg/kg.
Take `OCc1ccccc1CN1CCc2sccc2C1` [Derivative no. 10, 5-o-hydroxy-methylbenzyl-4,5,6,7-tetrahydrothieno[3,2-c]pyridine]: in series [2], the “Percent anti-inflammatory activity after 1 hour” value is listed as 36%, the “Percent anti-inflammatory activity after 2 hours” value is 48% and the “Percent anti-inflammatory activity after 5 hours” value stood at 56%. Moreover, in series [3], the “Percent decrease (of the edema reaction) after 2 hours” value (shortened to “Percent decrease … after 2 hours”) is 51% and the “Percent decrease (of the edema reaction) after 3 hours” value (“Percent decrease … after 3 hours” below) is recorded as 62%.
Take `Cl.c1cc2c(s1)CCN(Cc1ccc3c(c1)OCO3)C2` [Derivative no. 8, 5-(3,4-methylenedioxy-benzyl)-4,5,6,7-tetrahydro-thieno[3,2-c]pyridine hydrochloride]: in series [2], the “Percent anti-inflammatory activity after 1 hour” value is 41%, the “Percent anti-inflammatory activity after 2 hours” value is 51% and the “Percent anti-inflammatory activity after 5 hours” value is 59%. Besides, in series [3], the “Percent decrease … after 2 hours” value was 54% and the “Percent decrease … after 3 hours” value is 64%. The same compound returned a median lethal dose (LD50) at 24 h in series [1] of 65 mg/kg.
For the compound `COC(=O)c1ccccc1CN1CCc2sccc2C1` [Derivative no. 1, 5-o-Methoxycarbonylbenzyl-4,5,6,7-tetrahydro-thieno[3,2-c]pyridine], in series [2], the “Percent anti-inflammatory activity after 1 hour” value turned out to be 43%, the “Percent anti-inflammatory activity after 2 hours” value is 50% and the “Percent anti-inflammatory activity after 5 hours” value stood at 55%. Also, in series [3], the “Percent decrease … after 2 hours” value is recorded as 51% and the “Percent decrease … after 3 hours” value amounted to 58%. Besides, in series [1], the median lethal dose (LD50) at 24 h was found to be 92 mg/kg.
Take `N#Cc1ccccc1CN1CCc2sccc2C1.O=C(O)/C=C\C(=O)O` [Derivative no. 7, 5-o-cyanobenzyl-4,5,6,7-tetrahydrothieno[3,2-c]pyridine maleate]: in series [1], the LD50 at 24 h amounted to 45 mg/kg.
As for `OC(CN1CCc2sccc2C1)c1cccs1` (stereo not drawn) [Derivative no. 5, 5-[2-hydroxy-2-(2-thienyl)-ethyl]-4,5,6,7-tetrahydro-thieno[3,2-c]pyridinefumarate], in series [2], the “Percent anti-inflammatory activity after 1 hour” value was 45%, the “Percent anti-inflammatory activity after 2 hours” value was 53% and the “Percent anti-inflammatory activity after 5 hours” value came to 59%. Moreover, in series [3], the “Percent decrease … after 2 hours” value stood at 50% and the “Percent decrease … after 3 hours” value is listed as 61%. This compound also gave an LD50 at 24 h in series [1] of 75 mg/kg.
For the compound `Cl.Clc1ccc(CN2CCc3sccc3C2)s1` [Derivative no. 4, 5-[(5-Chloro-2-thienyl)-methyl]-4,5,6,7-tetrahydro-thieno[3,2-c]pyridine hydrochloride], in series [2], the “Percent anti-inflammatory activity after 1 hour” value was 39%, the “Percent anti-inflammatory activity after 2 hours” value worked out at 47% and the “Percent anti-inflammatory activity after 5 hours” value is reported as 54%. In addition, in series [3], the “Percent decrease … after 2 hours” value came out at 48% and the “Percent decrease … after 3 hours” value amounted to 53%. The compound also gave an LD50 at 24 h in series [1] of 165 mg/kg.
Compound `COC(=O)c1ccccc1CN1Cc2ccsc2CC1C` (stereo not drawn) [Derivative no. 3, 5-o-Methoxycarbonylbenzyl-6-methyl-4,5,6,7-tetrahydrothieno[3,2-c]pyridine] had an LD50 at 24 h in series [1] of 65 mg/kg.

These data come from US4097482A, “5-O-Cyanobenzyl-4,5,6,7-tetrahydro-thieno[3,2-c]pyridine maleate” (Centre d'Etudes Pour L'Industrie Pharmaceutique, priority 1975, dated 1978).
